Results taken from patent US6287813A, “Antibiotic-based gene regulation system” (Cistronics Cell Technology GmbH, priority 1999, dated 2001).

Columns and labels:
CHO cells = test: CHO cell morphology, growth and toxicity; type: cell-based, Chinese hamster
Method: However, pristinamycin has no influence on expression levels of PSV40 or PCMV -driven SEAP expression constructs (data not shown). […] Similar PI-dependent gene expression using the PIT/PPIR system has also been observed in BHK-21 and HeLa cells (not shown). […] This is the same order of magnitude as tissue concentrations reached in antibiotic therapy. Only much higher PI concentrations (above 50 μg/ml) were toxic for CHO cells.

Pip/PPIR ON = biological target: T1, Pip/PPIR ON (Streptomyces coelicolor, UniProt Q9ADN3); type: cell-based
T1 sequence (Q9ADN3 1-252): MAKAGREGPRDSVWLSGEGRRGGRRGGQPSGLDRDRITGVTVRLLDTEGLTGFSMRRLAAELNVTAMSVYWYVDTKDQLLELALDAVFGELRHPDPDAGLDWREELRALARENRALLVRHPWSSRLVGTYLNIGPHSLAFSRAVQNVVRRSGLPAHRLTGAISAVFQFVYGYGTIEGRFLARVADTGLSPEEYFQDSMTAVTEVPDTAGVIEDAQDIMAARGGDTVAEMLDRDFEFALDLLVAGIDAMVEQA
Text: The Classical PIT/PPIR system belongs to the "OFF" family of regulation concepts since gene expression is activated upon withdrawal of the regulating antibiotic. However, in some applications such as gene therapy and tissue engineering an "ON" system which is induced upon addition of streptogramin antibiotics is more desirable. We therefore constructed a new Pip-based binary PION system which consists of a PPIR ON promoter and a set of two different transrepressors. PPIR ON consists of a PIR3 module containing 3 consecutive Pip binding elements (SEQ ID NO:21; Example 3) placed in front of the strong viral SV40 promoter. Transrepressors such as PIT3, which consists of a protein fusion between Pip and the KRAB silencing domain of the human kox-1 gene (Deuschle et al., 1995, Mol. Cell Biol. 15: 1907-1914) and PIT4, which is simply Pip expressed in a eukaryotic configuration, bind to PIR3 in front of PSV40 and block transcription of this promoter. Besides sterical transcription blocking the silencing domain of PIT3 can additionally downregulate PSV40 activity. […]
Table 9: Comparison of the regulation characteristics of the PipON systems. CHO-K1 cells were simultaneously cotransfected with the plasmids indicated and the SEAP readout (slope a of the p-nitrophenolphosphate-based light absorbance time courses) was determined in the presence and absence of pristinamycin 48 hr post transfection. […]
In order to assess the regulation potential of different streptogramin antibiotics, pMF225 or pMF150 encoding PIT4 were cotransfected with pMF208 (PPIR ON-SEAP) into CHO-K1 cells and the SEAP induction was measured 48 following transfection (as described above in Example 1) and addition of the following streptogramin antibiotics: (i) PI, the group B streptogramin component of pristinamycin; (ii) Pyostacin, the human oral antibiotic; (iii) Synercid, the first injectable semi-synthetic pristinamycin derivative effective against most multidrug resistant human pathogenic bacteria and (iv) virginiamycin used as growth promotant in livestock feed. […]

## pristinamycin I [PI]
CHO cells; PI 2 μg/ml
  Effects on CHO cell morphology and growth: No deleterious effects
CHO cells; hamster, cho cells
  PI concentration toxic for CHO cells: above 50 μg/ml
Pip/PPIR ON; +PI (2 μg/ml) column, CHO + pMF208 + pMF225, 48 hr post transfection
  SEAP readout (slope of the p-nitrophenolphosphate-based light absorbance time courses): 0.019 ± 0.002
Pip/PPIR ON; CHO-K1 + pMF225 + pMF208, 2 μg/ml group B component, 48 hr post transfection
  SEAP Production (slope of the p-nitrophenolphosphate-based light absorbance time courses): 0.65 ± 0.03
Pip/PPIR ON; PIT4-PPIR ON configuration (pMF225-pMF208)
  Induction factor: 25
